In ChEMBL document CHEMBL4808243, “Harmine-inspired design and synthesis of benzo[d]imidazo[2,1-b]thiazole derivatives bearing 1,3,4-oxadiazole moiety as potential tumor suppressors” (Bioorg Med Chem, 2021):
Active and inactive are the calls of the source. No cut-off for these calls is given here.

Legend:
Type in all cases: functional, cell-based
A549 [1] = assay: Antiproliferative activity against human A549 cells assessed as inhibition of cell growth incubated for 72 hrs by MTT assay; details: A549, 72 h
NCI-H2228 = assay: Antiproliferative activity against human EML4-ALK positive H2228 cells assessed as inhibition of cell growth incubated for 72 hrs by MTT assay; details: NCI-H2228, 72 h
A549 [2] = assay: Inhibition of epithelial-mesenchymal transition in human A549 cells assessed as suppression of Twist 1 expression at 17 uM measured after 24 hrs by Western blot analysis
A549 [3] = assay: Inhibition of epithelial-mesenchymal transition in human A549 cells assessed as suppression of Twist 1 expression measured after 24 hrs by Western blot analysis; details: dose 0.5-2 µM
A549 [4] = assay: Induction of apoptosis in human A549 cells by flow cytometry analysis

SMILES | IC50 (A549 [1]) [µM] | IC50 (NCI-H2228) [µM] | Activity (A549 [2]) | Activity (A549 [3]) | Activity (A549 [4])
Cc1nc2sc3ccccc3n2c1-c1nnc(CCN2CC(O)C2)o1 | 9.63 | 22.5 | – | – | –
Cc1nc2sc3ccccc3n2c1-c1nnc(CCN(C)C)o1 | 11.9 | 19 | – | – | –
Cc1nc2sc3ccccc3n2c1-c1nnc(CN(C)C)o1 | 9.26 | 15.3 | – | – | –
CCN(CC)Cc1nnc(-c2c(C)nc3sc4ccccc4n23)o1 | 10.7 | 21.6 | – | – | –
Cc1nc2sc3ccccc3n2c1-c1nnc(CN2CC(O)C2)o1 | 12.3 | 27.2 | – | – | –
CCN(CC)CCc1nnc(-c2c(C)nc3sc4ccccc4n23)o1 | 9.55 | 23.9 | – | – | –
Cc1nc2sc3ccccc3n2c1-c1nnc(CN2CCN(CCO)CC2)o1 | 4.41 | 14.9 | – | – | –
Cc1nc2sc3ccccc3n2c1-c1nnc(CCNC2CCCC2)o1 | 15 | 18.6 | – | – | –
Cc1nc2sc3ccccc3n2c1-c1nnc(CNCCO)o1 | 8.46 | 17.8 | – | – | –
Cc1nc2sc3ccccc3n2c1-c1nnc(CN2CCCCC2)o1 | 15.1 | 19.2 | – | – | –
COc1ccc2c(c1)[nH]c1c(C)nccc12 [HARMINE] | 17.1 | 31.1 | Active | – | –
Cc1nc2sc3ccccc3n2c1-c1nnc(CNC2CCCC2)o1 | 3.92 | 17.4 | – | – | –
Cc1nc2sc3ccccc3n2c1-c1nnc(CCN2CCN(CCO)CC2)o1 | 6.95 | 14 | – | – | –
Cc1nc2sc3ccccc3n2c1-c1nnc(CCN2CCCCC2)o1 | 2.03 | 9.8 | – | Dose-Dependent Effect | inactive
CCCN1CCN(CCc2nnc(-c3c(C)nc4sc5ccccc5n34)o2)CC1 | 11.1 | 22.2 | – | – | –
Cc1nc2sc3ccccc3n2c1-c1nnc(CN2CCC(C)CC2)o1 | 12.8 | 23.1 | – | – | –
Cc1nc2sc3ccccc3n2c1-c1nnc(CCNCCO)o1 | 10.7 | 16.5 | – | – | –
Cc1nc2sc3ccccc3n2c1-c1nnc(CN2CCCC2)o1 | 7.7 | 26.5 | – | – | –
Cc1nc2sc3ccccc3n2c1-c1nnc(CN2CCC(O)CC2)o1 | 15 | 12.2 | – | – | –
Cc1nc2sc3ccccc3n2c1-c1nnc(CCN2CCC(O)CC2)o1 | 7.66 | 15.4 | – | – | –
Cc1nc2sc3ccccc3n2c1-c1nnc(CCN2CCC(C)CC2)o1 | 2.38 | 13.4 | – | – | –
CCCN1CCN(Cc2nnc(-c3c(C)nc4sc5ccccc5n34)o2)CC1 | 13.7 | 21.8 | – | – | –
Cc1nc2sc3ccccc3n2c1-c1nnc(CCN2CCCC2)o1 | 12.2 | 23.5 | – | – | –
